Reference: US11918555B2, “Dicarboxylic acid esters for the treatment of diseases and conditions associated with phospholipase D toxin” (priority 2020, dated 2024)

Columns and labels:
human RBC = assay: Hemolysis assay on human RBC (substance alone); type: cell-based
Procedure: (§1) Hemolytic activity was assessed on human RBC. The assay using human erythrocytes followed an established procedure as described in Evans, et al., “Ex vivo red blood cell hemolysis assay for the evaluation of pH-responsive endosomolytic agents for cytosolic delivery of biomacromolecular drugs,” J Vis Exp, 2013, e50166. Briefly, whole peripheral blood was drawn directly into K2-EDTA coated Vacutainer tubes and centrifuged at 500×g (relative centrifugal force). Pelleted erythrocytes were washed twice each with 150 mM NaCl and with phosphate buffered saline (PBS) and then reconstituted in 50-fold excess PBS. Immediately prior to the assay LOX was reconstituted in 20% glycerol in PBS. rPLD toxin was supplied as frozen stock in 10 mM Tris-HCl, 1 mM EDTA, 20% glycerol, was thawed on ice. The lysis assay was performed in 96-wells in a total volume of 200 ul. LOX and PLD toxin were and added as 20× concentrated stocks to the erythrocyte suspension. Triton X-100 (5% in serial dilutions to 0.04%) was used as a positive control. Incubation was performed for 60 min and the absorbance at 400 nm was measured using Tecan GENios microwell plate reader. Measurements were performed in triplicate repeats.

[1] = system: Recombinant Loxosceles intermedia Phospholipase D LiSicTox-alphaIA1a (rPLD toxin); assay: Inhibition of hemolysis induced by recombinant PLD toxin; type: cell-based
Procedure: (§2) Lyophilized Loxosceles reclusa venom (LOX) was purchased from SpiderPharm, Yarnell, AZ Immediately prior to the assay LOX was reconstituted in 20% glycerol in PBS. Recombinant Loxosceles intermedia Phospholipase D LiSicTox-alphaIA1a full length protein expressed in E.coli (part #MBS1258368), further referred to as rPLD toxin, was purchased from MyBiosource Inc, San Diego, CA Diethyl azelate (>99% purity) was prepared as described in Streeper, el al.,“Oral Azelaic Acid Ester Decreases Markers Of Insulin Resistance In Overweight Male Human Subjects.” In Vivo (2020), 34(3), 1173-1186.
as §1

[2] = system: Loxosceles reclusa venom (LOX); assay: Inhibition of hemolysis induced by L. reclusa venom (LOX); type: cell-based
Procedure: as §2, §1

[3] = system: brown recluse spider bite; assay: Topical diethyl azelate treatment of brown recluse spider bite; type: in vivo, human
Procedure: An adult subject was bitten once on their left forearm, and twice on their neck about one year later. Diethyl azelate was applied topically to the envenomation site at approximately 4 to 8 hour intervals for 14 days. Images of the affected neck area were normalized to the same size and converted to JPEG files. Inflamed red areas surrounding the bites visible as elevated lesions were outlined on the images and quantified using ImageJ software version 1.53e (ImageJ.nih.gov).

Triton X100 [reference compound]
erythrocytes hydrolyzed (hemolysis) (human RBC; human erythrocytes incubated with 5% Triton X100, positive control): > 95%

CCOC(=O)CCCCCCCC(=O)OCC [DEA, Diethyl azelate]
hemolysis in the presence of PLD toxin ([1]; 1 μM DEA, reduced from 78%): 43% | hemolysis in the presence of PLD toxin ([1]; 5 μM DEA): 16% | hemolysis in the presence of PLD toxin ([1]; 24 μM DEA): 13% | hemolysis in the presence of PLD toxin ([1]; 122 μM DEA): 5% | inhibition of hemolysis by recombinant L. intermedia rPLD toxin, dose dependence ([1]; FIG. 3 legend): inhibits hemolysis | inhibition of enzymatic activity of PLD toxin as measured by hemolysis induced by recombinant L. intermedia rPLD toxin ([1]; FIG. 4 legend): directly inhibits enzymatic activity | inhibition of hemolysis by L. reclusa venom, dose dependence ([2]; FIG. 3 legend): inhibits hemolysis | inhibition of enzymatic activity of PLD toxin as measured by hemolysis induced by L. reclusa spider venom ([2]; FIG. 4 legend): directly inhibits enzymatic activity | inhibition of hemolysis ([2]; preincubation of DEA with LOX for 60 min followed by addition of erythrocytes (FIG. 4)): inhibition of hemolysis | inhibition of hemolysis ([2]; preincubation of DEA with erythrocytes for 60 min followed by addition of LOX (FIG. 4)): inhibition of hemolysis | inhibition of hemolysis in the presence of LOX ([2]; starting at the lowest concentration of 1 μM DEA, constant LOX concentration (FIG. 3)): significantly inhibits hemolysis | swelling and discomfort ([3]; first incident, forearm bite, topical treatment initiated 4 hours after envenomation, by the fourth day): largely subsided | arm circumference relative to pre-bite ([3]; first incident, forearm bite, topical treatment initiated 4 hours after envenomation, second day): approximately twice | time of maximum inflamed red area around the bites ([3]; second incident, two neck bites, topical treatment initiated immediately, Day 2): 26 hours post-bite | redness, pain and swelling ([3]; second incident, two neck bites, topical treatment initiated immediately, by Day 14): entirely resolved | effect on hemolysis (human RBC; human erythrocytes incubated with 122 μM DEA alone): no effect on hemolysis
